From article PMC8845285, “Serotoninergic receptor ligands improve Tamoxifen effectiveness on breast cancer cells” (BMC Cancer, 2022)

What was measured:
Assay type in all cases: cell-based, human
HT2C receptor = experiment: 5-HT2C protein levels, Western blot; conditions: 72 h, MCF7, Tamoxifen-cultured MCF7 and MCF7-R cells
Method: RIPA buffer (Promega, Madison, Wisconsin, USA) was used for proteins’ extraction. Lysates ([…] protein/sample) were blotted with anti-5HT2C (1:500). Total lysates were normalized using anti-Vinculin (1:10000). The autoradiographs shown were obtained by ECL kit (Bio-Rad, Hercules, CA, USA).
Figure S4. 5-HT2C protein in MCF7, Tamoxifen-cultured MCF7 and MCF-R cells in absence or in presence of SER.
Cells were treated with 5µM SER79 or 20µM SER68. Alter 72h, cell lysa te swere obtained and 5-HT2C protein le ve lswere measured by western blot analysis. Vinculin was used for protein le ve ls normalization. […]
(1 picture or pasted object on this page, not shown here)

[1] = tested on: Tamoxifen-cultured MCF7 cells; experiment: Tamoxifen-cultured MCF7 cell viability, sulforhodamine B assay; conditions: E2 100 nM, 72 h; for further reduction of viability elicited by Tamoxifen in presence of SER: Tamoxifen 5 μM, Tamoxifen-cultured MCF7
Method: Cells were fixed with 50% trichloroacetic acid for at least 2 h at 4 °C, washed with distilled and de-ionized water, air-dryed and stained 30 min with 0.4% sulforhodamine B in 1% acetic acid. Unbound dye was removed and 10 mM tris-HCl solution (pH 7.5) was added to dissolve the protein-bound dye. Cell survival was assessed by optical density determination at 510 nm using a microplate reader.
To further investigate the effect of SER79 and SER68 on Tamoxifen responsiveness and CTGF expression in MCF7 cells, we obtained - by a continuous treatment of 10 days with 1 μM Tamoxifen – a cellular model less sensitive to the drug (Tamoxifen-cultured MCF7). We observed that 20 μM SER79, 20 μM and 40 μM SER68, while not 5 μM SER79, reduced viability of Tamoxifen-cultured MCF7 cells by about 40% (adjp<0.01; Fig. 8a). […] However, in the presence of 20 μM SER79, 20 μM and 40 μM SER68, Tamoxifen elicited a further 40% reduction of viability, similar to that achieved in Tamoxifen-responsive MCF7 cells (adjp<0.01; Fig. 8b).
Fig. 8 Effect of SER79 and SER68 on Tamoxifen-cultured MCF7 cells. MCF7 cells were cultured in presence of Tamoxifen (1 μM) for 10 days. Estrogen-starved MCF7 and Tamoxifen-cultured MCF7 cells (48 h) were (a-c) treated with SER79 (20 μM, 5 μM) or SER68 (40 μ, 20 μM), (b) treated with Tamoxifen (5 μM) in presence of SER79 (20 μM, 5 μM) or SER68 (40 μM, 20 μM). All treatments were carried out in presence of E2 (100 nM) for 72 h. As positive control, the cells were treated with (a-c) E2 alone or (b) E2 in absence or in presence of SER (as indicated, dotted line). a,b Cell viability was assessed by sulforhodamine B assay (see Methods). The results were reported as percentage of viable cells compared to positive control, considered as maximum viability (100%). c mRNA levels of CTGF were determined by qPCR (see Methods and Table 1). Data were normalized on Ribosomal Protein S23 (Rps23) gene as internal standard and reported as CTGF mRNA levels in Tamoxifen-cultured MCF7 relative to those in MCF7 cells (dotted line). a-c Graphs represent the mean ± SD of at least three independent triplicate experiments. * denotes statistically significant values compared with (a,b) positive control (*adjp<0.05, ** adjp<0.01) or (c) MCF7 cells (*pval<0.05); # denotes statistically significant values compared with (b) cells treated with Tamoxifen in absence of SER or (c) untreated Tamoxifen-cultured MCF7 cells (#pval<0.01, ##pval<0.0001)

CTGF = CTGF mRNA levels in MCF7 cells, qPCR; conditions: E2 100 nM, 72 h, estrogen-starved MCF7; for CTGF mRNA levels lower compared with untreated cells: SER at IC50 dose
Method: Total RNA was isolated from cells, quantified (NanoDrop spectrophotometer, Life Technologies, Carlsbad, CA, USA) and reverse transcribed according to the manufacturer’s instructions. Semiquantitative PCR and qPCR assays were performed according to manufacturer’s instructions for Bio-Rad T100 thermal cycler and CFX Connect Real Time system (Biorad, Hercules, CA, USA), respectively. Relative gene expression quantification was measured by 2^−ΔΔCt method normalizing for the reference sample using Rps23 (Ribosomal Protein S23) as housekeeping gene.
After 72 h, cell cycle was assessed by Propidium Iodide staining (see Methods). […] As positive control, the cells were treated with E2 and SER alone (without Tamoxifen, dotted line). After 72 h, cell viability was assessed by sulforhodamine B assay (see Methods). […] After 72 h, mRNA levels of CTGF were determined by qPCR (see Methods and Table 1). Data were normalized on Ribosomal Protein S23 (Rps23) gene as internal standard and were reported as CTGF mRNA levels in MCF7 treated with SER relative to those in untreated cells (dotted line). a-c Data represent the mean ± SD of at least three independent triplicate experiments. * denotes statistically significant values compared with (a) percentage of untreated cells in G0/G1, S and G2/M cell cycle phase (*pval<0.05,**pval<0.01), (b) positive control (*adjp<0.05,**adjp <0.01,***adjp<0.001), (c) untreated cells (pval<0.05); # denotes statistically significant values compared with cells treated with Tamoxifen in absence of SER (#pval<0.05)
Fig. 7 Effect of low doses of SER79 and SER68 on MCF7 and MCF10A cells. a Estrogen-starved MCF7 cells (48 h) were treated with Tamoxifen (5 μM) in presence of E2 (100nM) and SER79 (5 μM) or SER68 (20 μM, 5 μM). As positive control, the cells were treated with E2 and SER alone (without Tamoxifen, dotted line). After 72 h, cell viability was assessed by sulforhodamine B assay (see Methods). […] After 72 h, mRNA levels of CTGF were determined by qPCR (see Methods and Table 1). Data were normalized on Ribosomal Protein S23 (Rps23) gene as internal standard. Bars represent CTGF mRNA levels in MCF7 treated with SER relative to those in untreated cells (dotted line). c MCF10A non-cancer breast epithelial cells were treated with SER79 (5 μM) or SER68 (20 μM). After 72 h, cell viability was assessed by sulforhodamine B assay (see Methods).

Structure (SMILES) | change in protein levels of HT2C receptors upon SER treatment (HT2C receptor; 20 µM) | reduction of viability of Tamoxifen-cultured MCF7 cells ([1]; SER 20 μM alone) | further reduction of viability elicited by Tamoxifen in presence of SER ([1]; SER 20 μM) [%] | reduction of viability of Tamoxifen-cultured MCF7 cells ([1]; SER 40 μM alone) | further reduction of viability elicited by Tamoxifen in presence of SER ([1]; SER 40 μM) [%] | reduction of CTGF expression (CTGF; SER 20 μM) | CTGF mRNA levels lower compared with untreated cells (CTGF) | change in protein levels of HT2C receptors upon SER treatment (HT2C receptor; 5 µM) | further reduction of viability elicited by Tamoxifen in presence of SER ([1]; SER 5 μM) | reduction of CTGF expression (CTGF; SER 5 μM)
O=C1C2C3C=CC(C3)C2C(=O)N1OCCN1CCN(c2ccc(Cl)c(Cl)c2)CC1 (stereo not shown) [SER68] | no difference in protein levels | about 40% | 40 | about 40% | 40 | ≈ 50% | ≈ 80% | – | – | –
N#CN=C(NCCCN1CCN(C(c2ccc(F)cc2)c2ccc(F)cc2)CC1)c1ccccn1 [SER79] | – | about 40% | 40 | – | – | – | ≈ 60% | no difference in protein levels | No Tamoxifen effect was observed | ≈ 30%
